ChEMBL document CHEMBL1221175, “Purmorphamine activates the Hedgehog pathway by targeting Smoothened” (Nat Chem Biol, 2006)
The source made the active and inactive calls. No cut-off for these calls is given here.

Assays:
[1] = molecular target: Sonic hedgehog protein (Mus musculus) (UniProt Q62226); assay: Activation of Shh in ptch1 gene-deficient MEF assessed as beta-galactosidase activity after 30 hrs by chemiluminescence assay in presence of 100 nM 3-keto-N-aminoethyl-N'-aminocaproyldihydrocinnamoyl cyclopamine
[2] = molecular target: Sonic hedgehog protein (Mus musculus) (UniProt Q62226); assay: Activation of Shh in mouse Shh Light2 cells assessed as […] after 30 hrs by luciferase reporter gene assay in presence of 100 nM 3-keto-N-aminoethyl-N'-aminocaproyldihydrocinnamoyl cyclopamine; type: functional, cell-based; conditions: Shh Light II
[3] = molecular target: Sonic hedgehog protein (Mus musculus) (UniProt Q62226); assay: Activation of Shh in smo gene-deficient MEF at 0.5 uM after 30 hrs by luciferase reporter assay
[4] = molecular target: Sonic hedgehog protein (Mus musculus) (UniProt Q62226); assay: Activation of Shh in smo-expressing MEF at 0.5 uM after 30 hrs by luciferase reporter assay
Protein smoothened [5] = molecular target: T1, Protein smoothened (Homo sapiens, UniProt Q99835); assay: Inhibition of BODIPY-cyclopamine binding to Smo expressed in HEK293T cells after 1 hr by fluorescence microscopy
Protein smoothened [6] = molecular target: T1, Protein smoothened; conditions: HEK-293T; 5 uM
Description: Inhibition of BODIPY-cyclopamine binding to Smo N-terminal cysteine domain expressed in HEK293T cells at 5 uM after 4 hrs by fluorescence microscopy

Protein smoothened [7] = molecular target: T1, Protein smoothened; conditions: HEK-293T; 5 uM; remark: listed apart in the source
Description: Inhibition of BODIPY-cyclopamine binding to Smo C-terminal cytoplasmic domain expressed in HEK293T cells at 5 uM after 4 hrs by fluorescence microscopy

[8] = molecular target: Sonic hedgehog protein (Mus musculus) (UniProt Q62226); assay: Activation of Shh in mouse Shh Light2 cells assessed as […] at 1 uM after 30 hrs by luciferase reporter gene assay in presence of 1000 to 10000 nM 3-keto-N-aminoethyl-N'-aminocaproyldihydrocinnamoyl cyclopamine; type: functional, cell-based; conditions: Shh Light II
[9] = molecular target: Sonic hedgehog protein (Mus musculus) (UniProt Q62226); assay: Activation of Shh in mouse Shh Light2 cells assessed as […] at 10 uM after 30 hrs by luciferase reporter gene assay in presence of 1000 to 10000 nM 3-keto-N-aminoethyl-N'-aminocaproyldihydrocinnamoyl cyclopamine; type: functional, cell-based; conditions: Shh Light II

T1 sequence (Q99835 whole entry): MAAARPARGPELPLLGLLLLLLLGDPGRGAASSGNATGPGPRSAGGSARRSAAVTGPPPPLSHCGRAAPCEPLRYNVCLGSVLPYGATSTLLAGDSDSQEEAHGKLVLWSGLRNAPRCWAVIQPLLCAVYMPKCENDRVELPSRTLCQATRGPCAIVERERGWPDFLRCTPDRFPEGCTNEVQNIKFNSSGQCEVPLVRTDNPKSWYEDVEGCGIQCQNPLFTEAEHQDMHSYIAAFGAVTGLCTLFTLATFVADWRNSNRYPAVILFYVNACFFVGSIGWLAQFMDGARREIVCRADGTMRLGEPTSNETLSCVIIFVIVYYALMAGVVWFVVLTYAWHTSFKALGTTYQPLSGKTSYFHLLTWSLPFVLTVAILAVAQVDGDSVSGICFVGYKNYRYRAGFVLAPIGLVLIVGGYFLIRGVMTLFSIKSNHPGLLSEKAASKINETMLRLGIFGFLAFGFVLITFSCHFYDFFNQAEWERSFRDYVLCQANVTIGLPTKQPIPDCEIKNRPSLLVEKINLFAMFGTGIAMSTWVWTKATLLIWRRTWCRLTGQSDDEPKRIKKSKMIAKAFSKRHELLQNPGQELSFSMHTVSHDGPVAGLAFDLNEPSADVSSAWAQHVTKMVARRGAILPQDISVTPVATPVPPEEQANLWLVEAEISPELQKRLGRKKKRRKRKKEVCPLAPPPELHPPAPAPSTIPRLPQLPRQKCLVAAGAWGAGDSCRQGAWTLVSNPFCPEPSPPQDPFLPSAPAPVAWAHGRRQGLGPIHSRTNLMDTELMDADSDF

c1ccc2c(Oc3nc(Nc4ccc(N5CCOCC5)cc4)c4ncn(C5CCCCC5)c4n3)cccc2c1 [PURMORPHAMINE]
Activity [1]: Active
Activity [2]: Active
Activity [3]: inactive
Activity [4]: Active
IC50 (Protein smoothened [5]): 1500 nM
inhibition (Protein smoothened [6]): Active
inhibition (Protein smoothened [7]): Active

CC1=C2C[C@H]3[C@@H](CC=C4CC(=O)CC[C@@]43C)[C@@H]2CC[C@]12O[C@@H]1C[C@H](C)CN(CCNC(=O)CCCCCNC(=O)CCc3ccccc3)[C@H]1[C@H]2C
Activity [8]: Active
Activity [9]: Active

CC1=C2C[C@H]3[C@@H](CC=C4C[C@@H](O)CC[C@@]43C)[C@@H]2CC[C@]12O[C@@H]1C[C@H](C)CN[C@H]1[C@H]2C
Activity [1]: Active

CN[C@H]1CC[C@H](N(Cc2cccc(-c3ccncc3)c2)C(=O)c2sc3ccccc3c2Cl)CC1
Activity [1]: Active
